Where two headings read alike, the source gives them in different places.
What was measured:
[1] = Drug interaction studies: pharmacokinetic parameters of coadministered drug in the presence of glecaprevir/pibrentasvir; format: in vivo, human
Experimental: (§1) Drug interaction studies were performed with glecaprevir/pibrentasvir and other drugs that are likely to be coadministered and with drugs commonly used as probes for pharmacokinetic interactions.

[2] = Drug interaction studies: pharmacokinetic parameters of glecaprevir or pibrentasvir in the presence of coadministered drug; format: in vivo, human
Experimental: as §1

[3] = system: organic anion transporting polypeptide (OATP) 1B1/3; experiment: OATP1B1/3 inhibition; format: in vitro ADME
cytochrome P450 (CYP) 3A = experiment: CYP3A inhibition; format: in vitro ADME
[4] = Potentially significant drug interactions identified in drug interaction studies (effect on concentration); format: in vivo, human
Excerpt: Table 1 provides the effect of coadministration of glecaprevir and pibrentasvir on concentrations of concomitant drugs and the effect of concomitant drugs on glecaprevir and pibrentasvir.

CYP1A2 = target: T1, CYP1A2 (Homo sapiens, UniProt P05177); experiment: CYP1A2 inhibition; format: in vitro ADME
T1 sequence (P05177 1-516): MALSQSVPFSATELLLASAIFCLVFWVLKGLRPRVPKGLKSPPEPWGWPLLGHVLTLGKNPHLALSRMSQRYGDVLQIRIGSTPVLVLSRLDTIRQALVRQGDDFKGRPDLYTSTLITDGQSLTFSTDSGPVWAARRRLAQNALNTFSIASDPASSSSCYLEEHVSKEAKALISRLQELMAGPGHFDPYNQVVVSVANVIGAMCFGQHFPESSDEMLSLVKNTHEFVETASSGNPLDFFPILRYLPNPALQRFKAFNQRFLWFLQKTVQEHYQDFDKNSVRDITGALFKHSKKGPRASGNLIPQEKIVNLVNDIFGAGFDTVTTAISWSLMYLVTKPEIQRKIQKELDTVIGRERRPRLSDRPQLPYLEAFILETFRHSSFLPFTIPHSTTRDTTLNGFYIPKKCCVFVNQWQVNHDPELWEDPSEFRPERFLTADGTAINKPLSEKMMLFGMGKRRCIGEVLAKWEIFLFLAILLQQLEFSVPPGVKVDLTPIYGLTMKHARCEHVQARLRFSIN

P-glycoprotein (P-gp) = P-glycoprotein (P-gp) (Homo sapiens, UniProt P08183); experiment: P-gp inhibition; format: in vitro ADME
Chain of P-glycoprotein (P-gp) (P08183 whole entry): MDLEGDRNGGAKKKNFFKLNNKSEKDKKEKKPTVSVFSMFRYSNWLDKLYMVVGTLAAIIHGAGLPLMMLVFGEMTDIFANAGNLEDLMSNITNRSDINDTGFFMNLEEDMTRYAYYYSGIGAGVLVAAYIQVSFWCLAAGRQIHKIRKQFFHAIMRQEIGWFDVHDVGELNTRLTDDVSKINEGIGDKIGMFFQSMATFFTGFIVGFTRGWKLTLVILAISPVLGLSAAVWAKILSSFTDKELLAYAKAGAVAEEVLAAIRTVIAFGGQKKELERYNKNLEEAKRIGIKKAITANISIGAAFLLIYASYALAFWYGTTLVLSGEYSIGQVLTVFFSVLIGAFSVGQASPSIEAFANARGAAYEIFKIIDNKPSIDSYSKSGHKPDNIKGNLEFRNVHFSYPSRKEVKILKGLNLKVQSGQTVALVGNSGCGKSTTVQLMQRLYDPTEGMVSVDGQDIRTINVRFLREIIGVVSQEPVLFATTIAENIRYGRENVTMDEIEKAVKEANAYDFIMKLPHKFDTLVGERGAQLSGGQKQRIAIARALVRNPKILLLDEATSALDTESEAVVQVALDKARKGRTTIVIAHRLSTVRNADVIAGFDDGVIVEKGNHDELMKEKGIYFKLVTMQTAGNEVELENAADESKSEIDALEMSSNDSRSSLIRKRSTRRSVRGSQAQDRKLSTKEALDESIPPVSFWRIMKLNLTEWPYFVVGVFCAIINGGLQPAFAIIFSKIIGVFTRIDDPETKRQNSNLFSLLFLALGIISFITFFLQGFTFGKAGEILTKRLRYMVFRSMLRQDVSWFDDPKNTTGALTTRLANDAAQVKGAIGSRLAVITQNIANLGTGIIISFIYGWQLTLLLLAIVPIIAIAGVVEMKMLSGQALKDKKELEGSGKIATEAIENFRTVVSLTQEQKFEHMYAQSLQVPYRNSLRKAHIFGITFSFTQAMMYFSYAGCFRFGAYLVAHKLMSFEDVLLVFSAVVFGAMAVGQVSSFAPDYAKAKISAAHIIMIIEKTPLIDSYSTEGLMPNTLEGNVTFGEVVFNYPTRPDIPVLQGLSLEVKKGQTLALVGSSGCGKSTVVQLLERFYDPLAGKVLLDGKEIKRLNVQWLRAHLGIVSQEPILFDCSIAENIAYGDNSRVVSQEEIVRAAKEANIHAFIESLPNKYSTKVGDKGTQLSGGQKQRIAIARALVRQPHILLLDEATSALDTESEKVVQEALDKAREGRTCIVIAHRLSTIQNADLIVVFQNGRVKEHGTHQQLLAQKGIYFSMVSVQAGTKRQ

[5] = target: T2, uridine glucuronosyltransferase (UGT) 1A1 (Homo sapiens, UniProt P22309); experiment: UGT1A1 inhibition; format: in vitro ADME
T2 sequence (P22309 26-533): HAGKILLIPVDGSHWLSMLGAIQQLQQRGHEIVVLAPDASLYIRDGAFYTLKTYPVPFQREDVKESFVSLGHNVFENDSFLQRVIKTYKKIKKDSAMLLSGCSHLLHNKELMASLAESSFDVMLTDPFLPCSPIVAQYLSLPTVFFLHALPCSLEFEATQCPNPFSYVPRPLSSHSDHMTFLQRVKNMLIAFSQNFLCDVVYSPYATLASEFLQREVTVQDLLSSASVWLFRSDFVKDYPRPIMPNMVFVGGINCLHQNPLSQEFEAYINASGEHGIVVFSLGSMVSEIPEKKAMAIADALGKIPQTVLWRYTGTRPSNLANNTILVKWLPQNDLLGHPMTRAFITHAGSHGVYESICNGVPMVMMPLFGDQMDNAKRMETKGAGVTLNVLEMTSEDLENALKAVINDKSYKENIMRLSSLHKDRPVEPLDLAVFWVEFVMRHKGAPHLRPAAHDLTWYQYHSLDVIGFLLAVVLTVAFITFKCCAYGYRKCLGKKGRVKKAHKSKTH

[6] = target: T3, breast cancer resistance protein (BCRP) (Homo sapiens, UniProt Q9UNQ0); experiment: BCRP inhibition; format: in vitro ADME
T3 sequence (Q9UNQ0 1-655): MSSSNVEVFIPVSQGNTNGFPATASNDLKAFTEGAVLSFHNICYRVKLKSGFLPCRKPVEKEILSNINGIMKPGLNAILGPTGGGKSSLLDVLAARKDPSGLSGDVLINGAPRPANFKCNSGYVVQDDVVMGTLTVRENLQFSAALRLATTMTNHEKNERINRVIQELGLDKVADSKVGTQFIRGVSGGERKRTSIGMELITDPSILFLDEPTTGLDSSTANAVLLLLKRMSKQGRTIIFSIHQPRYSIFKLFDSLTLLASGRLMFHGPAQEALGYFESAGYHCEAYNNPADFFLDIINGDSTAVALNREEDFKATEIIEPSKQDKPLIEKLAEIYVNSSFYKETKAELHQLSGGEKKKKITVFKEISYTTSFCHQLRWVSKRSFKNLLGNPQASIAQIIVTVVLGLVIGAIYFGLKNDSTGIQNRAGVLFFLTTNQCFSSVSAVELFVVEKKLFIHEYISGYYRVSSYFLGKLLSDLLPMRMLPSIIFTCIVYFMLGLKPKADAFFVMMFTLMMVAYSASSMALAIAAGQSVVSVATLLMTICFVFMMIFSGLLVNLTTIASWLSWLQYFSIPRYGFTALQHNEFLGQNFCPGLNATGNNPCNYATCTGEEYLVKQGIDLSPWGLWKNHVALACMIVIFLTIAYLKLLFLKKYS

P-gp and/or BCRP = experiment: Substrate of P-gp and/or BCRP; format: in vitro ADME
OATP1B1/3 = experiment: Substrate of OATP1B1/3; format: in vitro ADME
[7] = cited from earlier work
[8] = tacrolimus 1 mg single dose, GLE/PIB 300/120 mg once daily
[9] = EFV/FTC/TDF 300/200/300 mg once daily, GLE/PIB 300/120 mg once daily
[10] = valsartan 80 mg single dose, GLE/PIB 300/120 mg once daily
[11] = dabigatran etexilate 150 mg single dose, GLE/PIB 300/120 mg once daily
[12] = with atazanavir + ritonavir 300 + 100 mg once daily, GLE/PIB 300/120 mg once daily, effect on the first dose of glecaprevir and pibrentasvir
[13] = with carbamazepine 200 mg twice daily, GLE/PIB 300/120 mg single dose
[14] = with cyclosporine 100 mg single dose, GLE/PIB 300/120 mg once daily
[15] = with cyclosporine 400 mg single dose, GLE/PIB 300/120 mg single dose
[16] = with darunavir + ritonavir 800 + 100 mg once daily, GLE/PIB 300/120 mg once daily
[17] = with elvitegravir/cobicistat/emtricitabine/tenofovir alafenamide 150/150/200/10 mg once daily, GLE/PIB 300/120 mg once daily
[18] = with lopinavir/ritonavir 400/100 mg twice daily, GLE/PIB 300/120 mg once daily
[19] = with omeprazole 20 mg once daily, GLE/PIB 300/120 mg single dose
[20] = with omeprazole 40 mg once daily (1 hour before GLE/PIB), GLE/PIB 300/120 mg single dose
[21] = with rifampin 600 mg (first close), GLE/PIB 300/120 mg single dose
[22] = with rifampin 600 mg once daily, GLE/PIB 300/120 mg single dose 24 hours after final rifampin dose
[23] = pravastatin coadministered with clarithromycin
[24] = pravastatin 10 mg once daily, GLE/PIB 400/120 mg once daily
[25] = rosuvastatin coadministered with lopinavir/ritonavir
[26] = rosuvastatin 5 mg once daily, GLE/PIB 400/120 mg once daily
[27] = simvastatin 5 mg once daily, GLE/PIB 300/120 mg once daily

C=CC[C@@H]1/C=C(\C)C[C@H](C)C[C@H](OC)[C@H]2O[C@@](O)(C(=O)C(=O)N3CCCC[C@H]3C(=O)O[C@H](/C(C)=C/[C@@H]3CC[C@@H](O)[C@H](OC)C3)[C@H](C)[C@@H](O)CC1=O)[C@H](C)C[C@@H]2OC [Tacrolimus]
Central Value Ratio (90% CI) AUC [1, 8]: 1.45
Central Value Ratio (90% CI) Cmax [1, 8]: 1.50

C[C@H](Cn1cnc2c(N)ncnc21)OCP(=O)(O)O [Tenofovir]
Central Value Ratio (90% CI) AUC [1, 9]: 1.29
Central Value Ratio (90% CI) Cmin [1, 9]: 1.38

CCCCC(=O)N(Cc1ccc(-c2ccccc2-c2nnn[nH]2)cc1)[C@H](C(=O)O)C(C)C [Valsartan]
Central Value Ratio (90% CI) AUC [1, 10]: 1.31
Central Value Ratio (90% CI) Cmax [1, 10]: 1.36

[H]/N=C(/N)c1ccc(NCc2nc3cc(C(=O)N(CCC(=O)O)c4ccccn4)ccc3n2C)cc1 [dabigatran]
Central Value Ratio (90% CI) AUC [1, 11]: 2.38
Central Value Ratio (90% CI) Cmax [1, 11]: 2.05

CC(C)(C)[C@@H]1NC(=O)O[C@@H]2CCC[C@H]2OC/C=C/C(F)(F)c2nc3ccccc3nc2O[C@@H]2C[C@@H](C(=O)N[C@]3(C(=O)NS(=O)(=O)C4(C)CC4)C[C@H]3C(F)F)N(C2)C1=O [glecaprevir, Glecaprevir]
Central Value Ratio (90% CI) AUC [2, 12]: ≥6.53
Central Value Ratio (90% CI) Cmax [2, 12]: ≥4.06
Central Value Ratio (90% CI) Cmin [2, 12]: ≥14.3
Central Value Ratio (90% CI) AUC [2, 13]: 0.34
Central Value Ratio (90% CI) Cmax [2, 13]: 0.33
Central Value Ratio (90% CI) AUC [2, 14]: 1.37
Central Value Ratio (90% CI) Cmax [2, 14]: 1.30
Central Value Ratio (90% CI) Cmin [2, 14]: 1.34
Central Value Ratio (90% CI) AUC [2, 15]: 5.08
Central Value Ratio (90% CI) Cmax [2, 15]: 4.51
Central Value Ratio (90% CI) AUC [2, 16]: 4.97
Central Value Ratio (90% CI) Cmax [2, 16]: 3.09
Central Value Ratio (90% CI) Cmin [2, 16]: 8.24
Central Value Ratio (90% CI) AUC [2, 17]: 3.05
Central Value Ratio (90% CI) Cmax [2, 17]: 2.50
Central Value Ratio (90% CI) Cmin [2, 17]: 4.58
Central Value Ratio (90% CI) AUC [2, 18]: 4.38
Central Value Ratio (90% CI) Cmax [2, 18]: 2.55
Central Value Ratio (90% CI) Cmin [2, 18]: 18.6
Central Value Ratio (90% CI) AUC [2, 19]: 0.71
Central Value Ratio (90% CI) Cmax [2, 19]: 0.78
Central Value Ratio (90% CI) AUC [2, 20]: 0.49
Central Value Ratio (90% CI) Cmax [2, 20]: 0.36
Central Value Ratio (90% CI) AUC [2, 21]: 8.55
Central Value Ratio (90% CI) Cmax [2, 21]: 6.52
Central Value Ratio (90% CI) AUC [2, 22]: 0.12
Central Value Ratio (90% CI) Cmax [2, 22]: 0.14
inhibition of OATP1B1/3 [3]: inhibitor
inhibition of OATP1B1/3 ([3]; listed as Glecaprevir): inhibitors
inhibition of CYP3A (cytochrome P450 (CYP) 3A): weak inhibitors
Effect on Concentration ([4]; concomitant Darunavir, Lopinavir, Ritonavir): ↑ glecaprevir
Effect on Concentration ([4]; concomitant St. John's Wort (hypericum perforatum)): ↓ glecaprevir
Effect on Concentration ([4]; concomitant drug Carbamazepine): ↓ glecaprevir
Effect on Concentration ([4]; concomitant drug Cyclosporine): ↑ glecaprevir
Effect on Concentration ([4]; concomitant drug Efavirenz): ↓ glecaprevir
inhibition of CYP1A2 (CYP1A2): weak inhibitors
inhibition of P-gp (P-glycoprotein (P-gp)): inhibitors
inhibition of UGT1A1 [5]: weak inhibitors
inhibition of BCRP [6]: inhibitors
substrate of P-gp and/or BCRP (P-gp and/or BCRP): substrates
substrate of OATP1B1/3 (OATP1B1/3): substrate

CC[C@H](C)C(=O)O[C@H]1C[C@@H](C)C=C2C=C[C@H](C)[C@H](CC[C@@H]3C[C@@H](O)CC(=O)O3)[C@H]21 [lovastatin]
Central Value Ratio (90% CI) AUC ([1]; lovastatin 10 mg once daily, GLE/PIB 300/120 mg once daily): 1.70

COC(=O)N[C@H](C(=O)N1CCC[C@H]1c1nc2cc([C@H]3CC[C@H](c4cc5nc([C@@H]6CCCN6C(=O)[C@@H](NC(=O)OC)[C@@H](C)OC)[nH]c5cc4F)N3c3cc(F)c(N4CCC(c5ccc(F)cc5)CC4)c(F)c3)c(F)cc2[nH]1)[C@@H](C)OC [pibrentasvir]
inhibition of OATP1B1/3 [3]: inhibitors
inhibition of CYP3A (cytochrome P450 (CYP) 3A): weak inhibitors
inhibition of CYP1A2 (CYP1A2): weak inhibitors
inhibition of P-gp (P-glycoprotein (P-gp)): inhibitors
inhibition of UGT1A1 [5]: weak inhibitors
inhibition of BCRP [6]: inhibitors
substrate of P-gp and/or BCRP (P-gp and/or BCRP): substrates

CC[C@H](C)C(=O)O[C@H]1C[C@H](O)C=C2C=C[C@H](C)[C@H](CC[C@@H](O)C[C@@H](O)CC(=O)O)[C@H]21 [pravastatin]
AUC increase [7, 23]: 2.3 fold
Cmax increase [7, 23]: 2.1 fold
Central Value Ratio (90% CI) AUC [1, 24]: 2.30
Central Value Ratio (90% CI) Cmax [1, 24]: 2.23

CC(C)c1nc(N(C)S(C)(=O)=O)nc(-c2ccc(F)cc2)c1/C=C/[C@@H](O)C[C@@H](O)CC(=O)O [rosuvastatin]
AUC increase [7, 25]: 2.1 fold
Cmax increase [7, 25]: 5 fold
Central Value Ratio (90% CI) AUC [1, 26]: 2.15
Central Value Ratio (90% CI) Cmax [1, 26]: 5.62

CCC(C)(C)C(=O)O[C@H]1C[C@@H](C)C=C2C=C[C@H](C)[C@H](CC[C@@H]3C[C@@H](O)CC(=O)O3)[C@H]21 [simvastatin]
Central Value Ratio (90% CI) AUC [1, 27]: 2.32
Central Value Ratio (90% CI) Cmax [1, 27]: 1.99
